Source: patent US8367340B2, “Prognostic tools to predict the efficacy of drug treatment targeting chromatin DNA or enzymes acting on DNA” (University of Maryland, Baltimore, priority 2008, dated 2013)

System: c-myc P2 promoter
Assay: PCR-Stop assay with real time PCR on genomic DNA of drug-treated RKO colon cancer cells
Assay type: cell-based, human
Details: 10 ng/ml TSA 4 h followed by 25 μM VP16 1 h, compared to the reverse combination and the single drug treatments
Text: Top2 inhibitors induce preferential damage within the c-myc locus and more particularly within the P2 promoter of c-myc. […] By way of non-limiting example, the 3′ end region may be amplified using the following primers of the human c-myc gene: Forward: 5′[…]3′ [SEQ ID NO: 1], Reverse: 5′[…]3′ [SEQ ID NO:2]. Other suitable primers may be used, as would be apparent to those skilled in the art.
According to example embodiments, a comparative threshold (Ct) method may be used to quantify the results obtained by the real-time RT-PCR. The comparative Ct method involves comparing the Ct values of the samples of interest with a control or calibrator such as a non-treated sample from normal tissue. The Ct values of both the calibrator and the samples of interest are normalized to an appropriate endogenous housekeeping gene. Non-limiting example quantification methods include identifying the cycle number at which the reporter dye emission intensities rises above background noise: this cycle number is called the threshold number (Ct). The Ct is proportional to the breaks introduced in the target template; the higher the amount of breakage in the given target template, the higher the Ct measured.
By way of non-limiting example, the 3′ region of c-myc gene that has no type II topoisomerase cleavage site may be used as a reference. […]

## COc1cc([C@@H]2c3cc4c(cc3[C@@H](O[C@@H]3O[C@@H]5CO[C@@H](C)O[C@H]5[C@H](O)[C@H]3O)[C@H]3COC(=O)[C@H]23)OCO4)cc(OC)c1O [VP16, etoposide]
  percentage of breaks at c-myc locus (type II topoisomerase mediated DNA breaks in c-myc P2 promoter): considerably higher percentage of breaks
